How the values were obtained:
MDA-MB-231 cells = assay: Cleaved caspase-3 immunoblot in proliferating and palbociclib-induced senescent MDA-MB-231 cells treated with vorapaxar; format: cell-based
Procedure: Proliferating and palbociclib-induced senescent MDA-MB-231 cells were treated with increasing doses of vorapaxar. Following treatment, cells were immunoblotted for cleaved caspase-3.

HCC827 and H1650 cells = assay: Cleaved caspase-3 immunoblot in proliferating or palbociclib-treated senescent NSCLC cells treated with PAR1 inhibitors; format: cell-based, human; conditions: for caspase-3 cleavage: HCC827 and H1650, palbociclib (0.5 μM, 7 days)-treated senescent cells, increasing doses of PAR1 inhibitor
Procedure: Because THBD is thought to signal primarily through PAR1, it was first tested whether, like THBD depletion, pharmacological PAR1 inhibition results in senescent cell death. For this, proliferating or palbociclib-treated senescent HCC827 and H1650 cells were treated with increasing doses of vorapaxar or SCH79797 and immunoblotted for cleaved caspase-3.

NSCLC = conditions: monotherapy for NSCLC; cited from earlier work
[1] = test system: THBD in primary human bronchial epithelial (HBE) cells; assay: Gene expression profiling of erlotinib-induced senescent versus proliferating HBE cells; format: cell-based
Description: Cell Res, 2018. 28(6): p. 625-643; Xiang, H., et al., UHRF1 is required for basal stem cell proliferation in response to airway injury. Cell Discov, 2017. 3: p. […] Cell Res, 2018. 28(6): p. 625-643).

## CCOC(=O)N[C@@H]1CC[C@@H]2[C@@H](C1)C[C@H]1C(=O)O[C@H](C)[C@H]1[C@H]2/C=C/c1ccc(-c2cccc(F)c2)cn1 [vorapaxar]
MDA-MB-231 cells; palbociclib-induced senescent MDA-MB-231, increasing doses of vorapaxar (50 nM-1 μM), 24 h
  caspase-3 cleavage, senescent cells: dose-dependent increase
MDA-MB-231 cells; proliferating MDA-MB-231, increasing doses of vorapaxar
  caspase-3 cleavage, proliferating cells: minimal increase
HCC827 and H1650 cells
  caspase-3 cleavage: dose-dependent increase
HCC827 and H1650 cells; combined with palbociclib
  lowest dose inducing caspase-3 cleavage: 25 nM

## CC(C)c1ccc(Cn2ccc3c4c(N)nc(NC5CC5)nc4ccc32)cc1 [SCH79797]
HCC827 and H1650 cells
  caspase-3 cleavage: dose-dependent increase

## CC(=O)c1c(C)c2cnc(Nc3ccc(N4CCNCC4)cn3)nc2n(C2CCCC2)c1=O [palbociclib]
NSCLC
  adverse side effects: neutropenia and leukopenia

## C#Cc1cccc(Nc2ncnc3cc(OCCOC)c(OCCOC)cc23)c1 [erlotinib]
[1]
  THBD gene expression in senescent versus proliferating cells: four-fold increase

From patent US20210161900A1, “COMPOSITIONS AND METHODS FOR THE TREATMENT OF SENESCENT TUMOR CELLS” (Duke University, priority 2018, published 2021)
